Reference: patent US4769364A, “Pyrimidin-5-yl phosphoric acid ester and thionophosphoric acid ester pesticides” (priority 1985, dated 1988)

What was measured:
[1] = Toxicity to warm-blooded animals, LD50 on rats (oral); conditions: rat, in vivo, oral (stomach tube), dissolved in polyethylene glycol LUTROL
Procedure: Toxicity to warm-blooded animals, LD50 values on rats (oral)
The values were determined in the customary manner. The active compounds were dissolved in polyethylene glycol LUTROL (trademark of BASF AG, Ludwigshafen, Federal Republic of Germany) and the solution was administered to rats with a stomach tube.

[2] = tested on: Phorbia antiqua maggots; test: Critical concentration test/soil insects: Phorbia antiqua maggots (in the soil); assay type: in vivo; conditions: 2.5 ppm active compound in soil; 2 to 7 days; 100% = all test insects killed
Procedure: (§1) Critical concentration test/soil insects
Test insect: Phorbia antiqua maggots (in the soil)
(§2) Solvent: 3 parts by weight of acetone
Emulsifier: 1 part by weight alkylaryl polyglycol ether.
(§3) To produce a suitable preparation of active compound, 1 part by weight of active compound is mixed with the stated amount of solvent, the stated amount of emulsifier is added and the concentrate is diluted with water to the desired concentration.
(§4) The preparation of active compound is intimately mixed with soil. The concentration of the active compound in the preparation is of practically no importance, only the amount by weight of active compound per unit volume of soil, which is given in ppm (=mg/liter) being decisive. The soil is filled into pots and the pots are left to stand at room temperature.
After 24 hours, the test insects are introduced into the treated soil, and after a further 2 to 7 days the degree of effectiveness of the active compound is determined in % by counting the dead and live test insects. The degree of effeciveness is 100% if all the test insects have been killed and is 0% if just as many test insects are still alive as in the case of the untreated control.

[3] = tested on: Diabrotica balteata larvae; test: Critical concentration test/soil insects: Diabrotica balteata larvae in the soil; assay type: in vivo; conditions: 168 h, 2.5 ppm active compound in soil, after a further 7 days, 100% = all test insects killed, read-out: degree of effectiveness
Procedure: as §1
Test insect: Diabrotica balteata larvae in the soil
as §2
(§5) Emulsifier: 1 part by weight of alkylaryl polyglycol ether.
as §3
as §4, with “into 0.5 liter” for “into”, “these” for “the pots”, “20° C.” for “room temperature.”
Immediately after setting up the test, 6 pregerminated grains of corn are placed in each pot. After 2 days, the corresponding test insects are introduced into the treated soil. After a further 7 days the degree of effectiveness of the active compound is determined in % by counting the dead and live test insects. The degree of effectiveness is 100% if all the test insects have been killed and is 0% if just as many test insects are still alive as in the case of the untreated control.

[4] = tested on: Meloidogyne incognita; test: Critical concentration test/nematodes: Meloidogyne incognita; assay type: in vivo; conditions: 20 ppm active compound in soil; lettuce, four weeks, 27° C.; 100% = infestation completely avoided
Procedure: Critical concentraion test/nematodes
Test nematode: Meloidogyne incognita
as §2, §5, §3
The preparation of active compound is intimately mixed with soil which is heavily infested with the test nematodes. The concentration of the active compound in the preparation is of practically no importance, only the amount of active compound per unit volume of soil, which is given in ppm, being decisive. The treated soil is filled into pots, lettuce is sown in and the pots are kept at a greenhouse temperature of 27° C.
After four weeks, the lettuce roots are examined for infestation with nematodes (root galls), and the degree of effectiveness of the active compound is determined in %. The degree of effectiveness is 100% if infestation is completely avoided and is 0% if the infestation is just as high as in the case of the control plants in untreated soil which has been infested in the same manner.

[5] = tested on: Lucilia cuprina OP res. larvae; test: Test with Lucilia cuprina OP res. larvae; assay type: in vivo; conditions: 10 ppm active compound, 24 hours, read-out: destruction
Procedure: Test with Lucilia cuprina OP res. larvae
35 parts by weight of ethylene glycol monoethyl ether
35 parts by weight of nonylphenol polyglycol ether.
To produce a suitable preparation of active compound, three parts by weight of active compound are mixed with seven parts by weight of the abovementioned solvent mixture and the concentrate thus obtained is diluted with water to the particular desired concentration.
About 20 Lucilia cuprina res. larvae are introduced into a test tube which contains approx. 1 cm^2 of horse muscle and 0.5 ml of the preparation of active compound. After 24 hours, the degree of destruction is determined.

[6] = tested on: Psoroptes ovis; test: Test with Psoroptes ovis; assay type: in vivo; conditions: 10 ppm active compound, 24 hours, read-out: destruction
Procedure: 35 parts by weight of ethylene glycol monomethyl ether
35 parts by weight of nonylphenol polyglycol ether
To produce a suitable preparation of active compound, three parts by weight of active compound are mixed with seven parts by weight of the abovementioned solvent mixture and the concentrate thus obtained is diluted with water to the desired concentration.
About 10-25 Psoroptes ovis are introduced into 1 ml of the active compound preparation to be tested, this having been pipetted into tablet nests of a deep-drawn package. After 24 hours, the degree of destruction is determined.

SMILES	LD50 [1] [mg/kg]	degree of effectiveness [2] [%]	mortality at 2.5 ppm [3] [%]	degree of effectiveness [4] [%]	mortality at 10 ppm [5] [%]	mortality at 10 ppm [6] [%]
CCOP(=S)(OCC(F)(F)F)Oc1cnc(C(C)(C)C)nc1 (stereo not shown) [Example 1, O-ethyl O-(2,2,2-trifluoroethyl) O-(2-tert.-butyl-pyrimidin-5-yl)thionophosphate]	100 to 250	95	100	95		
CCCOP(=S)(OCC)Oc1cnc(C(C)C)nc1 (stereo not shown) [known compound (B), reference compound]		100		95		
CCOP(=S)(OCC(F)(F)C(F)F)Oc1cnc(C(C)(C)C)nc1 (stereo not shown) [Example 2]	50	100	100	100	100	100
CCOP(=S)(OCC)Oc1cnc(C(C)(C)C)nc1 [Comparison compound (A), reference compound]	1 to 2.5	100	100	100		
